Data set [1] deals with experimentally induced psoriasis in normal human skin grafted onto beige-SCID mice. Nature of the data set: Study 1: histology of human skin xenograft psoriasis model in beige-SCID mice. In kind it is in vivo. Particulars: for Mean Epidermal Thickness: topical 14 days, grafts excised Day 56, mean ± SD. From the text: (§1) The objective of this study was to determine the efficacy of tapinarof composition as described in Example 8 compared to the vehicle and Dexamethasone as shown below. The evaluation was based on histology analysis following application of the respective test formulations.
(§2) In this model, a psoriasis phenotype is induced in normal skin grafted onto beige-severe combined immunodeficient mice by intradermal injection of natural killer/T-cells derived from psoriatic patients (Gilhar et al., Psoriasis is mediated by a cutaneous defect triggered by activated immunocytes: induction of psoriasis by cells with natural killer receptors, J. Invest. Dermatol. 2002 August; 119(2):384-91).
(§3) In order to address the aim of the experiment, the psoriatic humanized mice were established Additionally, 10 psoriatic patients were recruited (six males and four females), ranging from 21 to 66 years (mean age 45 years). All patients had classic plaque psoriasis. Normal skin from one healthy volunteer was obtained for grafting.
(§4) The efficacy study has been conducted on female mice. The total duration of the experiment was 8 weeks, upon receiving of the human skin. Normal skin from healthy volunteers were obtained for grafting. Healthy human abdominal skin pieces with a width of 0.4 mm and surface area of 1.5×1.5 cm were provided. The skin sample was preserved in isotonic saline solution and transplanted within 6-12 hours after skin donation. In addition, blood samples were collected from psoriatic patients having classic plaque psoriasis and not undergoing any treatment. 20 mL blood samples were taken from both males and females psoriatic patients (from psoriatic patients having classic plaque psoriasis and not undergoing any treatment), and peripheral blood mononuclear cells (PBMC) were separated immediately after blood withdrawal.
(§5) Mice: Beige-severe combined immunodeficient mice C.B-17/IcrHsdscid-bg (beige-SCID) mice (weight ˜25 g) were included in this study. Mice were monitored twice a week for vital signs such as weight, food intake, coat, eyes, anal genital areas, discharge/soiling, behavior and criteria related to skin transplantation. Normal healthy human donor skin were transplanted onto the beige-SCID mice as previously described (See Keren A. et al., Novel nanosome delivery system combined with siRNA targeting the antimicrobial gene DFB4: a new approach for psoriasis management? ExpDermatol. 2014; 23:464-465; Bracke S. et a/., Targeted silencing of DEFB4 in a bioengineered skin-humanized mouse model for psoriasis: development of siRNA SECosome-based novel therapies. ExpDermatol. 2014; 23:199-201; Zaretsky M. et al., Directed evolution of a soluble human IL-17A receptor for the inhibition of psoriasis plaque formation in a mouse model. Chem Biol. 2013 21; 20:202-2; Gilhar A. et al., The beneficial effect of blocking Kv1.3 in the psoriasiform SCID mouse model. J Invest Dermatol. 2011; 131:118 124; Keren A. et al., Innate lymphoid cells 3 induce psoriasis in xenotransplanted healthy human skin. J Allergy Clin Immunol. 2018; 142:305-308.e6).
(§6) British Journal of Pharmacology 2010; 159:842-855).
(§7) Four weeks following the engraftment, each mouse was injected (intradermally) with 1×10^7 IL-2 enriched allogeneic PBMC's from psoriatic patients (1×10^7 cells injected/mouse). Cells from different psoriasis patients were equally distributed between treatment groups. Each patient was represented in each treatment group.
(§8) Fourteen days following cells injections, the mice were divided into treatment groups (Table 1, see below) and treated according to the timeline indicated below (see Scheme 1). Each transplant was equally topically treated (50 μg) by using a sterile spatula.
(§9) Dexamethasone (D2915, Sigma): was freshly prepared for each administration by dilution in saline to final concentration (50 mg/ml). […]

In data set [2] the test system is HBD2, Psoriasin (S100A7), CD4, CD8, IL-17, IL-22. Nature of the data set: Study 2: immunohistochemical markers for psoriasis in human xenotransplants. Particulars: immunohistochemistry of xenotransplants. In kind it is in vivo, beige-SCID mice.
Data set [3] relates to experimentally induced psoriasis in normal human skin grafted onto beige-SCID mice. Nature of the data set: Study 2: histology of human skin xenograft psoriasis model in beige-SCID mice. In kind it is in vivo. Also noted: Mean Epidermal Thickness: unit not given here.
Text: as §1, §2, §3, §4, §5, §6, §7, §8, §9

For data set [4] the following is noted: as a single drug, psoriasis treatment; placebo 20.2%; cited from earlier work.
Setting [5] is: histological evaluation of human skin grafts.

Regarding `C[C@@H]1C[C@H]2[C@@H]3CCC4=CC(=O)C=C[C@]4(C)[C@@]3(F)[C@@H](O)C[C@]2(C)[C@@]1(O)C(=O)CO` [Dexamethasone], in data set [1], the “Partial Recovery (percent of grafts)” value is “(10%)”, the “Psoriatic Features (percent of grafts)” value was “(0%)” and the “Mean Epidermal Thickness” value is recorded as 254±59 μm. In data set [1] (average ± SD), the “Baker score: Agranulosis - hypogranulosis” value was found to be 0.1 ± 0.3; the “Baker score: Blood vessels (tortuosity, elongation)” value was 0.05 ± 0.1; the “Baker score: Epidermal thickening (acanthosis)” value came to 0.05 ± 0.1; the “Baker score: Hyperkeratosis” value amounted to 0.05 ± 0.1. Besides, in data set [1] (average ± SD), the “Baker score: Mononuclear cells infiltrate in the papillary dermis” value amounted to 0.2 ± 0.6, the “Baker score: Munro micro abscess” value is 0 ± 0, the “Baker score: Parakeratosis” value was 0.1 ± 0.3 and the “Baker score: Regular/abnormal elongation of rete ridges” value was 0.1 ± 0.4. Also, in data set [1] (average ± SD), the “Baker score: Suprapapillary epidermal thinning” value was determined as 0.05 ± 0.1 and the “Histological Scoring (Baker system), Total Score” value was found to be 0.7 ± 1.9. Moreover, in data set [1] (setting [5]), the “Complete Recovery (grafts/total grafts)” value is listed as 9/10, the “Partial Recovery (grafts/total grafts)” value is on record as 1/10 and the “Psoriatic Features (grafts/total grafts)” value is given as 0/10. The “Mean Epidermal Thickness” value in data set [1] (listed as Dexamethasone 2 mg) is 254 ± 59 μm. Besides, in data set [2], the CD4 amounted to 0.5 ± 0.8 Cells per 0.66 mm^2; the CD8 was 0.6 ± 0.6 Cells per 0.66 mm^2; the “HBD2 (Integrated intensity, %)” value came to 5.8 ± 0.9%; the IL-17 is on record as 0.6 ± 0.9^ Cells per 0.66 mm^2. Moreover, in data set [2], the IL-22 turned out to be 0.4 ± 0.8 Cells per 0.66 mm^2 and the “Psoriasin (S100A7) (Integrated intensity, %)” value came to 6.6 ± 2.1%. Further, the “Proliferation index (%)” value in data set [3] stood at 6 ± 2%. For the same compound, in data set [3] (average ± SD), the “Baker score: Agranulosis - hypogranulosis” value worked out at 0.1 ± 0.3; the “Baker score: Blood vessels (tortuosity, elongation)” value was found to be 0.05 ± 0.1; the “Baker score: Epidermal thickening (acanthosis)” value worked out at 0.05 ± 0.1; the “Baker score: Hyperkeratosis” value turned out to be 0 ± 0. Besides, in data set [3] (average ± SD), the “Baker score: Mononuclear cells infiltrate in the papillary dermis” value worked out at 0 ± 0, the “Baker score: Munro micro abscess” value came to 0 ± 0, the “Baker score: Parakeratosis” value amounted to 0 ± 0 and the “Baker score: Regular/abnormal elongation of rete ridges” value came to 0 ± 0. Moreover, in data set [3] (average ± SD), the “Baker score: Suprapapillary epidermal thinning” value is recorded as 0.05 ± 0.1 and the “Histological Scoring (Baker system), Total Score” value stood at 0.25 ± 0.8. In data set [3] (setting [5]), the “Complete Recovery (grafts/total grafts)” value is recorded as 10/10, the “Partial Recovery (grafts/total grafts)” value is listed as 0/10 and the “Psoriatic Features (grafts/total grafts)” value is reported as 0/10. In data set [3] (mean ± SD), the Mean Epidermal Thickness is 193 ± 71.

`CC(C)c1c(O)cc(/C=C/c2ccccc2)cc1O` [Tapinarof, 3,5-dihydroxy-4-isopropyl-trans-stilbene]: the adverse effects in data set [4] is listed as 44.5%.

Regarding `C=C1/C(=C\C=C2/CCC[C@]3(C)[C@@H]([C@H](C)/C=C/[C@@H](O)C4CC4)CC[C@@H]23)C[C@@H](O)C[C@@H]1O` [calcipotriene], in data set [4], the adverse effects is 19.5%.

The values are drawn from patent publication US20230346716A1, “TREATMENT OF SKIN DISORDERS WITH TOPICAL TAPINAROF COMPOSITIONS” (Sol-Gel Technologies Ltd., priority 2019, published 2023).
